Experimental data from patent publication US12171737B2, “Methods for reducing the symptoms of neurodegenerative disease in a human” (priority 2021, dated 2024).

Experiments:
[1] = system: patient with Parkinsonism; assay: Case reports: skin application in patients with Parkinsonism/dystonia (Examples 3-5); format: in vivo, human
Excerpt: This person presented with left hemiparetic neglect, reduced finger fine motor capacity, flat affect, tremor, and reduced extended arm wrist rotation and loss of shoulder extension and abduction. The diagnosis of Parkinsonism on clinical grounds was confirmed at a major hospital chain neurology clinic. […] Their extended wrist rotation range measured 60 degrees initially; by six months this approached 200 degrees. At 3 months they could extend their shoulder quickly to 180 degrees (initially slowly to 60 degrees.) This functionality continues to be maintained over 15 months of intermittent applications of salve and ingestion of isomerized safflowerate.
This person presented while on Sinemet prescribed by a major hospital chain neurology clinic for Parkinsonism. […] They also had reduced head rotation with painful limitation.
This individual stopped his Sinemet, continued every other day application of the Example 12 and oral intake of isomerized safflowerate. Improvement has maintained for 4 months, with rare intermittent right-hand tremors after a day of heavy farming.
This person sustained the onset of right arm dystonic Parkinsonism several months after a traumatic brain injury. […] Personal life issues prevented further applications.
The patient was instructed to rotate, extend and open their hand while they were actively having right hand-arm Parkinsonism tremors. They were unable to either rotate their wrist or open their hand voluntarily initially as shown on the left picture so they attempt to force it open with their left hand. The patient was treated with application of the salve over their right arm, subocciput, and upper torso bilaterally.

[2] = system: patient with dystonia; assay: Case reports: skin application in patients with dystonia (Examples 1, 2); format: in vivo, human; settings: Example 1 patient, right arm dystonia; salve applied
Excerpt: Over the years, I observed progression of dystonia of a patient. […] An extended forearm wrist rotation was used to identify and measure progression of dystonia. A normal human can rotate the wrist of the fully extended arm more than 270 degrees. The patient was falling to 200 degrees with increasing pain in the opposing forearm muscles.
Last spring, I applied a salve of K-CLA, potassium-conjugated linoleic acid, to potentially kill the microbial residents in the skin causing the dystonia.
This person presented with right arm dystonia after complaints of hand incoordination worsening with vibration. Muscle tenderness and loss of range of motion of extended-wrist rotation defined the clinical diagnosis confirmed by pattern EMG (Nicolet) within a university neurology clinic. The Potassium safflowerate of Example 11 as a salve. […] The improved capacity including reduction in hand tremor has continued with application of Example 10 and 11 application every 2-7 days.

[3] = system: malassezia species, candida, aspergillus and many gram positive and negative bacteria; settings: Changaris and Sullivan 2019; cited from earlier work
[4] = system: patients having dystonia with traumatic brain injury; assay: Video capture of wrist rotation before and after application, five patients with Dystonia/Parkinsonism (Example 9); format: in vivo, human; settings: for increase in external wrist rotation / increase in internal wrist rotation: FIG. 1
Excerpt: Five patients aged 42-67 using recorded videos of hand movement Dystonia/Parkinsonism before and after application of Example 12 for 5-10 days. Four had bilateral symptoms. Using video capture to measure the rotation of their wrists before and after application of the […]. […] This improvement has been sustained with intermittent continuing application of the salve to the skin of the forearm and shoulder for 3 months.
Subsequently, I have recorded videos of hand movement in patients with Dystonia/Parkinsonism before and after similar treatment. Several had bilateral symptoms. Video capture was used to measure the rotation of their wrists before and after application of the K-CLA 0.1-12%. […] This improvement has been sustained with intermittent continuing application of the salve to the skin of the forearm and shoulder. […] Application of a broad spectrum antimicrobial with profound antifungal capacity can reverse symptoms of Dystonia/Parkinsonism.

[5] = system: gram positive and negative bacteria as well as fungi including Malassezia, Aspergillus, and Candida; assay: Anti-microbial capacity of K-CLA; format: cell-based
[6] = system: bacteria and fungi (cross-kingdom); settings: hospital disinfection; Changaris and Carenbauer 2022; cited from earlier work
[7] = system: patient with Alzheimer's; assay: Case reports: skin application in Alzheimer's syndrome (Examples 7, 8); format: in vivo, human; settings: patient with early Alzheimer's disease and cortical atrophy

| Compound | right arm dystonic Parkinsonism ([1]; Example 5, person, as tolerated) | dystonic symptoms [2] | biocidal capacity [3] | extended wrist rotation ([4]; applied as salve, within weeks) | increase in external wrist rotation ([4]; first patient) [%] | increase in internal wrist rotation ([4]; first patient) [%] | capacity to draw, patient's own impression ([4]; one patient, an architect) | increase in external wrist rotation ([4]; second patient) [%] | increase in internal wrist rotation ([4]; second patient) [%] | anti-microbial capacity [5] | cross-kingdom anti-bacterial and anti-fungal efficacy [6] | skin reactions ([1]; hemiparetic Parkinsonism patient and early Alzheimer's patient, skin application) | acute hemiparetic Parkinsonism ([1]; patient who refused conventional medications, salve) | mental acuity and emotionality [7] |
| --- | --- | --- | --- | --- | --- | --- | --- | --- | --- | --- | --- | --- | --- | --- |
| C#CCN(C)[C@H](C)Cc1ccccc1 [selegiline, reference compound] | without significant improvement |  |  |  |  |  |  |  |  |  |  |  |  |  |
| potassium-conjugated linoleic acid [K-CLA] |  | Most of the dystonic symptoms were resolved | biocidal capacity against at least four malassezia species | measurable improvement | ~20 | ~30 | capacity to draw has improved | ~10 | ~20 | extraordinary anti-microbial capacity | sufficient to satisfy the United States Environmental Protection Agency requirements for hospital disinfection | intense skin reactions | improving acute hemiparetic Parkinsonism with both strength and agility | clinical improvement in mental acuity and emotionality |
